# Laboratory results published in patent US20250186652A1, “ARTICLES AND METHODS FOR IMPROVED TISSUE HEALING” (UNIVERSITY OF MISSISSIPPI MEDICAL CENTER, priority 2022, published 2025).
# B1: PDGF-BB: platelet-derived growth factor-BB, controlled release from fibrin-based delivery system (protein, UniProt P01127 82-190, looked up)
# Platelet-derived growth …: SLGSLTIAEPAMIAECKTRTEVFEISRRLIDRTNANFLVWPPCVEVQRCSGCCNNRNVQCRPTQVQLRPVQVRKIEIVRKKPIFKKATVTLEDHLACKCETVAAARPVT
# What was measured:
# Hif-1 alpha = test: Inhibition of Hif-1 alpha leading to CTGF in vitro
# Source text: Fructose-1,6-bisphosphate (FBP) is an intermediate in glycolysis which, if provided to cells could allow them to bypass two ATP-requiring steps for energy production. […] M6P is known to isomerize to fructose-6-phosphate (F6P), an intermediate of glycolysis in the step prior to FBP (FIG. 1). Therefore, one might hypothesize that treatment with M6P may decrease production of CTGF by decreasing the need for substrate-level phosphorylation, which would be vital in hypoxic conditions. In this regard, the present inventors have shown that […] produces the inhibition of Hif-1 alpha leading to CTGF in vitro. Alternatively, latent TGF-β is activated through its binding with the M6P/IGFII receptor (Ghahary, Tredget et al. 1999). Competitive inhibition of the activation of TGF-β through treatment with M6P is considered another method by which M6P may inhibit fibrosis. It is thought that M6P may have more potential for reducing fibrosis than FBP because its mechanism of action is not dependent upon a hypoxic environment.
# CTGF = details: cells under hypoxic conditions; Haung, Adah et al. 2009; cited from earlier work
# [1] = test system: human dermal fibroblast and keratinocyte; details: Clavel, Barragan-Montero et al. 2005; cited from earlier work
# MRC-5 fibroblast cells = test: In vitro fibroblast proliferation/viability with M6P and TGF-β1; type: cell-based
# Source text: FIGS. 8A-B show images illustrating that M6P competes with TGFβ. (A) Use of MRC-5 fibroblast cells in an in vitro assessment of concentration effects of TGFβ and M6P as well as effectiveness of M6P to block the proliferative effects of TGFβ. (B) Schematic showing potential mechanism of M6P and TGFβ competing for the same M6P receptor that leads to increase gene regulation.
# human tenocytes = details: in vitro; Wong, Tang et al. 2003; cited from earlier work
# digital flexor tendons = details: three weeks after operation; vs operated controls; cited from earlier work
molecule,measurement,setting,value
"O=C(CO)[C@@H](O)[C@H](O)[C@H](O)COP(=O)(O)O [F6P, fructose 6 phosphate]",inhibition of Hif-1 alpha leading to CTGF,Hif-1 alpha,inhibition
"O=C(COP(=O)(O)O)[C@@H](O)[C@H](O)[C@H](O)COP(=O)(O)O [FBP, Fructose-1,6-bisphosphate]",production of CTGF,CTGF,decreases production of CTGF to near control conditions
"O=C[C@@H](O)[C@@H](O)[C@H](O)[C@H](O)COP(=O)(O)O [M6P, mannose 6 phosphate]",inhibition of proliferation,[1],potent inhibitor
same,cell proliferation of fibroblast cells,MRC-5 fibroblast cells; 0.05 μM M6P,enhance cell proliferation
same,toxic effect on fibroblast cells,MRC-5 fibroblast cells; 0.05 μM M6P,without evidence of a toxic effect
same,TGF-β1-induced proliferation,MRC-5 fibroblast cells; M6P added along with TGF-β1,increased proliferation was eliminated
C[C@@H]1C[C@H]2[C@@H]3CCC4=CC(=O)C=C[C@]4(C)[C@@]3(F)[C@@H](O)C[C@]2(C)[C@@]1(O)C(=O)CO [dexamethasone],"tenocyte viability, mitotic activity and collagen production",human tenocytes,negative effects
TGF-β1: TGF-β1 growth factor added to fibroblast cells [reference compound],cell proliferation,MRC-5 fibroblast cells; TGF-β1 added at 8 pM,enhanced cell proliferation
same,toxicity to the cells,MRC-5 fibroblast cells; TGF-β1 at the higher doses,toxic
B1,range of motion (ROM),digital flexor tendons,significantly greater ROM
